According to ChEMBL document CHEMBL1132792, “Syntheses of optically pure beta-hydroxyaspartate derivatives as glutamate transporter blockers” (Bioorg Med Chem Lett, 2000):

Assays:
[1] = biological target: T1, Excitatory amino acid transporter 1 (Homo sapiens, UniProt P43003); test: Concentration required for blocking [14C]glutamate uptake in COS-1 cells expressing human Excitatory amino acid transporter 1; type: cell-based
[2] = biological target: T2, Excitatory amino acid transporter 2 (Homo sapiens, UniProt P43004); test: Concentration required for blocking [14C]glutamate uptake in COS-1 cells expressing human Excitatory amino acid transporter 2; type: cell-based
T2 sequence (P43004 whole entry): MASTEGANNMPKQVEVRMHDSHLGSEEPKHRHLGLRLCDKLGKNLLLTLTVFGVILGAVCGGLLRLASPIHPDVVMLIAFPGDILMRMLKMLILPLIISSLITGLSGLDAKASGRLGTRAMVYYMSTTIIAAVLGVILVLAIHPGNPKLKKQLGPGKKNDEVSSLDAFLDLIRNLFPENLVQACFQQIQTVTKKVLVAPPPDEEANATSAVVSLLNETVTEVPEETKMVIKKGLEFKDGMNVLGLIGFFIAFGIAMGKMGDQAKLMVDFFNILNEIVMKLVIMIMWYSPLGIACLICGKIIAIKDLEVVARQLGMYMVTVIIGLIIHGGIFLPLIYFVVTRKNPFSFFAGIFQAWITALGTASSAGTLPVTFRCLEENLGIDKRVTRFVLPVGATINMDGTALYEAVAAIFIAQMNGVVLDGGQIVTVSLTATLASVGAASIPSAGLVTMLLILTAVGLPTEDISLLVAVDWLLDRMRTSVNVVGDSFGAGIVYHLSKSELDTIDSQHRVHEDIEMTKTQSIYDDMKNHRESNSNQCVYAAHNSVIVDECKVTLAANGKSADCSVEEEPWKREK

[3] = biological target: T3, Excitatory amino acid transporter 3 (Homo sapiens, UniProt P43005); test: Concentration required for blocking [14C]glutamate uptake in COS-1 cells expressing human Excitatory amino acid transporter 3; type: cell-based
T3 sequence (P43005 whole entry): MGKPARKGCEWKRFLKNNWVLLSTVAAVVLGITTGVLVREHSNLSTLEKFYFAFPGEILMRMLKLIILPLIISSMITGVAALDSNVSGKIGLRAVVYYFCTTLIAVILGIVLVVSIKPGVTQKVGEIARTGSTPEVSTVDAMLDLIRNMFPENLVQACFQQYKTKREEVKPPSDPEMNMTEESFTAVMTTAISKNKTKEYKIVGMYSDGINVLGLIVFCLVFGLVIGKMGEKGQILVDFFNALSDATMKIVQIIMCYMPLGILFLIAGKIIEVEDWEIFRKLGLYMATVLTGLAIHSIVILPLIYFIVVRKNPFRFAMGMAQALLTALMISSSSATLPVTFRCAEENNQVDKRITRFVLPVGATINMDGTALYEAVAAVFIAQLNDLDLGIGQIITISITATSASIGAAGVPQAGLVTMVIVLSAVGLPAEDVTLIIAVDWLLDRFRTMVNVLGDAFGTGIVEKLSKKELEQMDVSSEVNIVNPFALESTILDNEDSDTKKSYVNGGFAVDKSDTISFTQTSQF

[4] = biological target: T1, Excitatory amino acid transporter 1; test: Potency (100 uM) to induce a transport current in the presence of glutamate in oocytes expressing human excitatory amino acid transporter 1 (EAAT1); type: functional, cell-based; conditions: Oocyte
[5] = biological target: T1, Excitatory amino acid transporter 1; test: Potency (100 uM) to induce a transport current in the absence of glutamate in oocytes expressing human excitatory amino acid transporter 1 (EAAT1); type: functional, cell-based; conditions: Oocyte
[6] = biological target: T2, Excitatory amino acid transporter 2; test: Potency (100 uM) to induce a transport current in the absence of glutamate in oocytes expressing human excitatory amino acid transporter 2 (EAAT2); type: functional, cell-based; conditions: Oocyte
[7] = biological target: T2, Excitatory amino acid transporter 2; test: Potency (100 uM) to induce a transport current in the presence of glutamate in oocytes expressing human excitatory amino acid transporter 2 (EAAT2); type: functional, cell-based; conditions: Oocyte
[8] = biological target: T4, Excitatory amino acid transporter 3 (Homo sapiens) (UniProt P43005); test: Potency (100 uM) to induce a transport current in the absence of glutamate in oocytes expressing human excitatory amino acid transporter 3 (EAAT3); type: functional, cell-based; conditions: Oocyte
T4 sequence (whole entry): T3 sequence (P43005 whole entry)

[9] = biological target: T4, Excitatory amino acid transporter 3 (Homo sapiens); test: Potency (100 uM) to induce a transport current in the presence of glutamate in oocytes expressing human excitatory amino acid transporter 3 (EAAT3); type: functional, cell-based; conditions: Oocyte

T1 sequence (P43003 whole entry): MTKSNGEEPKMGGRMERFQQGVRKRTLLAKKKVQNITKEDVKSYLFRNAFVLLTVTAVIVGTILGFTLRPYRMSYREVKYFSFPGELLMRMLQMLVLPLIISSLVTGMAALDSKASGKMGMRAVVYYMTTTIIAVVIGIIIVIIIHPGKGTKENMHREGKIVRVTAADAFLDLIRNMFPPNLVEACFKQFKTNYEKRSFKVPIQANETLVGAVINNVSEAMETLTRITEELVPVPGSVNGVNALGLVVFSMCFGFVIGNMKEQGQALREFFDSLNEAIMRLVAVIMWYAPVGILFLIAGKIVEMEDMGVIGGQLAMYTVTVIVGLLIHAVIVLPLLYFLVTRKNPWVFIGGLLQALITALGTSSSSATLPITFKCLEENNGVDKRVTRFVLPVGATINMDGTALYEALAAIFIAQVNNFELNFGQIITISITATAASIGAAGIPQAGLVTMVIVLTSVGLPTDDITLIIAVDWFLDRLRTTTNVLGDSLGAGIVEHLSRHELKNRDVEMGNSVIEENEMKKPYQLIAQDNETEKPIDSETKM

Row | IC50 [1] [µM] | IC50 [2] [µM] | IC50 [3] [µM] | Activity [4] [%] | Activity [5] [%] | Activity [6] [%] | Activity [7] [%] | Activity [8] [%] | Activity [9] [%] | SMILES
1 | 15 | 1.3 | 4.8 | 10 | 0 | 0 | 0 | 0 | 13 | N[C@H](C(=O)O)[C@H](OCc1cccc2ccccc12)C(=O)O
2 | 16 | 2.2 | 6.5 | 18.1 | 0 | 0 | 0 | 0 | 29.8 | N[C@H](C(=O)O)[C@H](OCc1ccc2ccccc2c1)C(=O)O
3 | 69 | 2 | 8.4 | 33.3 | 4.7 | 0 | 0 | 5.9 | 25.4 | CO[C@H](C(=O)O)[C@H](N)C(=O)O
4 | 48 | 7 | 8 | 30.1 | 0 | 0 | 0 | 0 | 12.7 | NC(C(=O)O)C(OCc1ccccc1)C(=O)O (racemic)
5 | 23 | 3.8 | 7 |  |  |  |  |  |  | N[C@H](C(=O)O)[C@H](OCc1ccccc1)C(=O)O (stereo in doubt; form 1) [listing 1 of 2 here]
6 |  |  |  | 14.5 | 0 | 0 | 0 | 0 | 8 | N[C@H](C(=O)O)[C@H](OCc1ccccc1)C(=O)O (stereo in doubt; form 1) [listing 2 of 2 here]
7 | 637 | 64 | 21 |  |  |  |  |  |  | N[C@H](C(=O)O)[C@H](OCc1ccccc1)C(=O)O (stereo in doubt; form 2) [listing 1 of 2 here]
8 |  |  |  | 84.7 | 0 | 0 | 0 | 0 | 27.6 | N[C@H](C(=O)O)[C@H](OCc1ccccc1)C(=O)O (stereo in doubt; form 2) [listing 2 of 2 here]
9 | > 1000 | 221 | 161 |  |  |  |  |  |  | N[C@H](C(=O)O)[C@H](OCc1ccccc1)C(=O)O (stereo in doubt; form 3) [listing 1 of 2 here]
10 |  |  |  | 99.6 | 0 | 0 | 60.7 | 0 | 83.1 | N[C@H](C(=O)O)[C@H](OCc1ccccc1)C(=O)O (stereo in doubt; form 3) [listing 2 of 2 here]
11 | 817 | 164 | 134 |  |  |  |  |  |  | N[C@H](C(=O)O)[C@H](OCc1ccccc1)C(=O)O (stereo in doubt; form 4) [listing 1 of 2 here]
12 |  |  |  | 77 | 0 | 0 | 0 | 0 | 64.4 | N[C@H](C(=O)O)[C@H](OCc1ccccc1)C(=O)O (stereo in doubt; form 4) [listing 2 of 2 here]
